Data published in publication PMC8400246, “Antimicrobial Activity and Action Mechanisms of Arg-Rich Short Analog Peptides Designed from the C-Terminal Loop Region of American Oyster Defensin (AOD)” (Marine Drugs, 2021).
Positions of bridges follow the written chain, without caps; N, C: chain ends. Residues, ends and D or L forms follow the SMILES beside them.

Key:
S. enterica KCTC2514 = experiment: Ultrasensitive radial diffusion assay (URDA), MEC; assay type: cell-based, Salmonella enterica; conditions: S. enterica KCTC2514, Gram -, pH 6.6, 37 °C, triplicate, averaged
Protocol: (§1) The antimicrobial activity of the AOD analogs was assessed with an ultrasensitive radial diffusion assay (URDA), as described previously. The antimicrobial activity of the analogs (from 31.3 to 1000 μg/mL, 5 μL volume) was tested against several bacteria, including Bacillus subtilis KCTC1021, Streptococcus mutans KCCM40105, Aeromonas hydrophila KCTC2358, Escherichia coli D31, E. coli ML35p, Pseudomonas aeruginosa KCTC2004, Salmonella enterica KCTC2514, and Shigella sonnei KCTC2009. In addition, Cutibacterium acnes KCTC3314, Staphylococcus epidermidis KCTC1917, and Candida albicans KCTC7965 were used for the anti-acne activity test. All except C. acnes KCTC3314 were grown overnight for 18 h in tryptic soy broth (TSB; for bacteria) or Sabouraud dextrose broth (SDB; for C. albicans) at the appropriate temperature (25 °C for A. hydrophila, 37 °C for the others). C. acnes was grown for 72 h in reinforced clostridial medium (RCM) under anaerobic conditions with an anaerobic gas-generating pouch (GasPak EZ; Becton Dickinson and Company, Sparks, MD, USA) at 37 °C. Following overnight or 72-h incubation, the bacterial and C. albicans suspensions were diluted to a McFarland turbidity standard level of 0.5 (Vitek Colorimeter #52-1210; Hach, Loveland, CO, USA) corresponding to approximately 10^8 colony forming units (CFU)/mL for bacteria and 10^6 CFU/mL for C. albicans. Diluted bacterial or C. albicans suspension (0.5 mL) was added to 9.5 mL underlay gel containing 5 × 10^6 or 5 × 10^4 CFU/mL in 10 mM phosphate buffer (pH 6.6) with 0.03% TSB (or RCM) or 0.03% SDB and 1% Type I low-electroendosmosis agarose. The AOD analogs were serially diluted two-fold in 5 µL acidified water (0.01% acetic acid; HAc) and each dilution was added to 2.5-mm diameter wells in the 1-mm thick underlay gel. After incubation for 3 h at either 25 °C (for A. hydrophila) or 37 °C (for the others), the bacterial or yeast suspension was overlaid with 10 mL double-strength overlay gel containing 6% TSB, RCM, or SDB with 10 mM phosphate buffer (pH 6.6) in 1% agarose. Plates were incubated for an additional 18–24 h (72 h for C. acnes) and the clearing zone diameters were measured. After subtracting the diameter of the well (2.5 mm), the clearing zone diameter was expressed in units (0.1 mm = 1 U).
(§2) The minimal effective concentration (MEC; μg/mL) of the AOD analogs was calculated as the X-intercept of a plot of clearing zone diameter units against the log10 of the peptide concentration. Piscidin 1, an α-helical AMP isolated from hybrid striped bass (Morone saxatilis × Morone chrysops) was used as a positive control.

S. sonnei KCTC2009 = experiment: Ultrasensitive radial diffusion assay (URDA), MEC; assay type: cell-based, Shigella sonnei; conditions: S. sonnei KCTC2009, Gram -, pH 6.6, 37 °C, triplicate, averaged
Protocol: as §1, §2

C. albicans KCTC7965 = experiment: Ultrasensitive radial diffusion assay (URDA), MEC; assay type: cell-based, Candida albicans; conditions: C. albicans KCTC7965, yeast, SDB, pH 6.6, 37 °C, triplicate, averaged
Protocol: as §1, §2

[1] = system: E. coli DH5α genomic DNA (16S ribosomal gene); experiment: DNA amplification (PCR) inhibition assay; assay type: biochemical, Escherichia coli; conditions: 1.5 µg of each analog, 0.2 µg E. coli DH5α gDNA, 30 cycles
Protocol: To determine whether AOD analogs target DNA amplification, the ability of the analogs to inhibit DNA amplification was assessed using E. coli DH5α genomic DNA (gDNA). Total gDNA was extracted using the phenol–chloroform method, as described previously. To assess the inhibition of DNA amplification, 1.5 µg AOD analog was added to the polymerase chain reaction (PCR) mixture. The PCR solution consisted of 0.2 µg purified gDNA, 5 µL 10× PCR buffer with MgCl2, 4 µL of each dNTP at 2.5 mM, 0.25 μL Ex Taq polymerase (Takara Bio, Shiga, Japan), 2.0 pmol each of primers 27F (5′-[…]-3′) and 1492R (5′-TACGGCTACCTTGTTACGA-CTT-3′), and up to 50 µL sterile distilled water. The PCR thermal cycling conditions were as follows: initial denaturation at 94 °C for 5 min; 30 cycles of 94 °C for 30 s, 55 °C for 30 s, and 72 °C for 2 min; and a final extension for 10 min at 72 °C. PCR was conducted using a Type 9700 Thermal Cycler (Perkin-Elmer, Norwalk City, CA, USA). The PCR products were confirmed through 1.5% agarose gel electrophoresis with 0.5 μg/mL EtBr. Piscidin 1 was used as a positive control and 0.01% HAc was used as a negative control.

E. coli D31 = experiment: Ultrasensitive radial diffusion assay (URDA), MEC; assay type: cell-based, Escherichia coli; conditions: E. coli D31, Gram -, pH 6.6, 37 °C, triplicate, averaged
Protocol: as §1, §2

E. coli ML35p = experiment: Ultrasensitive radial diffusion assay (URDA), MEC; assay type: cell-based, Escherichia coli; conditions: Gram -, pH 6.6, 37 °C, triplicate, averaged
Protocol: as §1, §2

[2] = system: 100-bp DNA ladder and DNA polymerase; experiment: Competitive binding between DNA and DNA polymerase; conditions: 1 μg peptide, 0.2 μg 100-bp DNA ladder, DNA polymerase 1.0 μL (5 units/μL), 37 °C, 60 min
Protocol: To assess the preferential binding ability of the AOD analogs to DNA or DNA polymerase, a competitive binding assay was performed. Briefly, AOD analog was added to a reaction mixture containing DNA or DNA polymerase and incubated for 60 min at 37 °C. […] Piscidin 1 and 0.01% HAc were the positive and negative controls, respectively.

A. hydrophila KCTC2358 = experiment: Ultrasensitive radial diffusion assay (URDA), MEC; assay type: cell-based, Aeromonas hydrophila; conditions: A. hydrophila KCTC2358, Gram -, pH 6.6, 25 °C, triplicate, averaged
Protocol: as §1, §2

P. aeruginosa KCTC2004 = experiment: Ultrasensitive radial diffusion assay (URDA), MEC; assay type: cell-based, Pseudomonas aeruginosa; conditions: P. aeruginosa KCTC2004, Gram -, pH 6.6, 37 °C, triplicate, averaged
Protocol: as §1, §2

S. mutans KCCM40105 = experiment: Ultrasensitive radial diffusion assay (URDA), MEC; assay type: cell-based, Streptococcus mutans; conditions: S. mutans KCCM40105, Gram +, pH 6.6, 37 °C, triplicate, averaged
Protocol: as §1, §2

B. subtilis KCTC1021 = experiment: Ultrasensitive radial diffusion assay (URDA), MEC; assay type: cell-based, Bacillus subtilis; conditions: B. subtilis KCTC1021, Gram +, 10 mM phosphate buffer pH 6.6, 37 °C, X-intercept of clearing zone vs log10 concentration, triplicate, averaged
Protocol: as §1, §2

[3] = system: human red blood cells (RBCs; blood type B); conditions: 3% hematocrit, 3.13–100 μg/mL, 60 min, 37 °C, absorbance 542 nm, triplicate
several microorganisms = conditions: analog peptides from the C-terminus of MGD-1; cited from earlier work
From the text: This peptide contains three disulfide bridges linked with six cysteine (Cys) residues, which contribute to its structural stability. For the development of potential AMPs from AOD, the AOD molecule may be inappropriate due to its complex structure containing six Cys residues and long sequence length (38 residues), which complicate the recreation of its structure and increase production costs. In a previou ...

V. parahaemolyticus gDNA = experiment: Bacterial gDNA binding (electrophoretic mobility shift); set-up: species or system Vibrio parahaemolyticus; conditions: 1 μg of analog with V. parahaemolyticus gDNA, agarose gel
Protocol: To evaluate the binding ability of the AOD analogs to intracellular components, a DNA binding assay was performed as previously described with minor modifications. The DNA-binding ability of the AOD analogs was assessed through observation of the inhibition of migration of DNA bands through agarose gels. […] HAc (0.01%) was used as a negative control.

C. acnes KCTC3314 = experiment: Ultrasensitive radial diffusion assay (URDA), MEC; assay type: cell-based, Cutibacterium acnes; conditions: C. acnes KCTC3314, Gram +, anaerobic, RCM, 72 h, 37 °C, triplicate, averaged
Protocol: as §1, §2

100-bp DNA ladder = experiment: DNA binding assay (electrophoretic mobility shift); conditions: 1 μg analog with 0.2 μg 100-bp DNA ladder, 37 °C, 60 min, 1.8% agarose gel with EtBr
Protocol: To evaluate the binding ability of the AOD analogs to intracellular components, a DNA binding assay was performed as previously described with minor modifications. The DNA-binding ability of the AOD analogs was assessed through observation of the inhibition of migration of DNA bands through agarose gels. A commercial 100-bp DNA ladder (0.2 μg) (Bioneer Corp., Daejeon, South Korea) was mixed with each analog (1 μg) in 0.01% acetic acid, and the resulting mixture was incubated at 37 °C for 60 min and then electrophoresed on 1.8% agarose gels containing 0.5 μg/mL ethidium bromide (EtBr). HAc (0.01%) was used as a negative control.
To determine the concentration required for the interaction of AOD analogs with DNA, a DNA binding assay was performed with various mixing ratios of analog A3 (0.25–1.0 μg/mL) and 100-bp DNA ladder (0.1–0.4 μg), as described above.

S. epidermidis KCTC1917 = experiment: Ultrasensitive radial diffusion assay (URDA), MEC; assay type: cell-based, Staphylococcus epidermidis; conditions: S. epidermidis KCTC1917, Gram +, pH 6.6, 37 °C, triplicate, averaged
Protocol: as §1, §2

Molecule: Piscidin 1: α-helical AMP isolated from hybrid striped bass, used as a positive control (FFHHIFRGIVHVGKTIHRLVTG) [reference compound]
- Minimal Effective Concentration (S. enterica KCTC2514): 4.6 µg/mL
- Minimal Effective Concentration (S. sonnei KCTC2009): 8.6 µg/mL
- Minimal Effective Concentration (C. albicans KCTC7965): 11.8 µg/mL
- inhibition of DNA amplification (PCR) [1]: did not inhibit
- Minimal Effective Concentration (E. coli D31): 2.0 µg/mL
- Minimal Effective Concentration (E. coli ML35p): 2.3 µg/mL
- competitive binding between DNA and DNA polymerase (electrophoretic mobility of DNA) [2]: preferentially binds to DNA polymerase over DNA
- Minimal Effective Concentration (A. hydrophila KCTC2358): 9.1 µg/mL
- Minimal Effective Concentration (P. aeruginosa KCTC2004): 8.0 µg/mL
- Minimal Effective Concentration (S. mutans KCCM40105): 3.2 µg/mL
- Minimal Effective Concentration (B. subtilis KCTC1021): 2.3 µg/mL
- hemolytic activity [3]: strong hemolysis, even at very low concentrations (from 6.25 μg/mL)

Molecule: CKKWKRKRC [Lys-substituted analog peptide derived from …]
- antimicrobial activity (in words) (several microorganisms): stronger antibacterial activity than the parent analog peptide

Molecule: N=C(N)NCCC[C@@H]1NC(=O)[C@H](CCCNC(=N)N)NC(=O)[C@H](CCCNC(=N)N)NC(=O)[C@H](CCCNC(=N)N)NC(=O)[C@H](Cc2c[nH]c3ccccc23)NC(=O)[C@H](CCCNC(=N)N)NC(=O)[C@H](CCCNC(=N)N)NC(=O)[C@@H](N)CSSC[C@@H](C(=O)O)NC1=O [Analog A3] (H-CRRWRRRRC-OH; disulfide 1-9)
- Minimal Effective Concentration (S. enterica KCTC2514): 6.5 µg/mL
- electrophoretic mobility of V. parahaemolyticus gDNA (V. parahaemolyticus gDNA): inhibited
- Minimal Effective Concentration (C. acnes KCTC3314): 53.7 µg/mL
- Minimal Effective Concentration (S. sonnei KCTC2009): 5.5 µg/mL
- Minimal Effective Concentration (C. albicans KCTC7965): 54.0 µg/mL
- inhibition of DNA amplification (PCR) [1]: partially or completely inhibited
- Minimal Effective Concentration (E. coli D31): 5.0 µg/mL
- Minimal Effective Concentration (E. coli ML35p): 6.8 µg/mL
- competitive binding between DNA and DNA polymerase (electrophoretic mobility of DNA) [2]: inhibited
- Minimal Effective Concentration (A. hydrophila KCTC2358): 3.3 µg/mL
- Minimal Effective Concentration (P. aeruginosa KCTC2004): 3.0 µg/mL
- Minimal Effective Concentration (S. mutans KCCM40105): 1.5 µg/mL
- electrophoretic mobility of the DNA (DNA-binding ability) (100-bp DNA ladder): inhibited
- Minimal Effective Concentration (B. subtilis KCTC1021): 0.4 µg/mL
- Minimal Effective Concentration (S. epidermidis KCTC1917): 4.2 µg/mL

Molecule: CGGWHRLRC [analog peptide derived from the C-terminus (loop 3) of MGD-1]
- antimicrobial activity (in words) (several microorganisms): potent antimicrobial activity
